From patent US20210062177A1, “Alginate Lyase” (Ocean University of China, priority 2019, published 2021)
Where two headings read alike, the source gives them in different places.

Key:
ScCD6 = test: Effects of metal ions and chemical reagents on ScCD6 enzyme activity; assay type: biochemical, Streptomyces coelicolor A3(2); details: ScCD6 activity with metal ion/chemical reagent; for Relative enzyme activity %: control = 100.00
Method: (§1) Using 0.3% (w/v) sodium alginate as the substrate, in a 200 μL reaction system, after reaction for 20 min and boiling 2 min for inactivating, DNS method was used to determine the content of reducing sugar in the product to characterize the enzyme activity.
(§2) To determine the temperature stability, ScCD6 was incubated at 30° C., 40° C., 50° C. and 60° C., and its residual enzyme activity was determined by sampling at different times. When determining the stabilities of the enzyme under different pH, the enzyme was stored in buffer solution with pH 7.0, 8.0, 9.0 and 10.0 at 4° C., and the residual enzyme activity was determined by sampling at different times. […] In order to investigate the substrate specificity of ScCD6, sodium alginate, poly M and poly G were used as substrates and reacted at 40° C. for 20 min. The content of reducing sugar was determined by DNS method.

[1] = ScCD6 enzyme activity, reducing sugar by DNS method (optimum temperature and pH); assay type: biochemical
Method: as §1, §2

[2] = Method: as §1, §2
[3] = Substrate specificity of ScCD6 (DNS method); assay type: biochemical; details: sodium alginate, poly M, poly G; 40° C. for 20 min
Method: as §2

[4] = Product analysis of polysaccharide degradation by ScCD6 (HPLC); assay type: biochemical
Method: Further, the concentration of substrate (sodium alginate, poly M, poly G) in the reaction can be 0.3% (w/v). An amount of added enzyme can be 0.6 U. A reaction can be carried out at 30° C., pH 7.0 for 12 hours. The obtained products can be used for HPLC tests.
Using 0.3% (w/v) sodium alginate, poly M and poly G substrates, in a 200 μL reaction system, 0.6 U alginate lyase ScCD6 was added and reacted at 30° C. and pH 7.0 for 12 hours. The reaction product was boiled for 10 min and centrifuged at 10,000 rpm for 10 min to remove the proteins and other impurities in the system. The supernatant was collected and passed through a 0.22 μm filter membrane for HPLC test. The HPLC conditions were as follows: Superdex™ 30 Increase 30/100 Gel column, 0.2 M NH4HCO3 as mobile phase, flow rate of 0.4 mL/min, room temperature (˜25° C.), loading sample volume of 100 μL, UV detection at 235 nm.

| Molecule | effect on the enzyme activity (ScCD6) | Relative enzyme activity % (ScCD6) [%] | also measured |
| --- | --- | --- | --- |
| [Ba+2] [Ba^2+] | promote the enzyme activity | 108.96 |  |
| [Ca+2] [Ca^2+] | little effects on the enzyme activity | 101.76 |  |
| [Co+2] [Co^2+] | promote the enzyme activity | 106.89 |  |
| [Cu+2] [Cu^2+] | inhibit the enzyme activity | 86.33 |  |
| [Fe+3] [Fe^3+] | promote the enzyme activity | 110.41 |  |
| [K+] [K^+] | little effects on the enzyme activity | 98.28 |  |
| [Mg+2] [Mg^2+] | inhibit the enzyme activity | 91.64 |  |
| [Mn+2] [Mn^2+] | promote the enzyme activity | 110.91 |  |
| O=C([O-])CN(CCN(CC(=O)[O-])CC(=O)O)CC(=O)O.[Na+].[Na+] [Na2EDTA] | lose the enzyme activity | 1.03 |  |
| [Na+] [Na^+] | little effects on the enzyme activity | 101.15 |  |
| [Ni+2] [Ni^2+] | inhibit the enzyme activity | 85.86 |  |
| CCCCCCCCCCCCOS(=O)(=O)[O-].[Na+] [SDS] | inhibit the enzyme activity | 92.02 |  |
| [Zn+2] [Zn^2+] | promote the enzyme activity | 109.04 |  |
| ScCD6: novel PL-6 family alginate lyase from Streptomyces coelicolor A3(2), 493 amino acids, SEQ ID NO: 1 (protein, Streptomyces coelicolor) MNRPRLSTYAAITVAAITIAALTTAASALASTGDTSSRTPSGNSTPQANATIVNVSSSTQLTTAMANAVAGQTIVLANGSYSIGKLNAKNGTSSAPITIMAAQQGKAIITGGQLEVLSSSYVTFSGLKWTNSNTLKITSSHHIRLTRNHFRLTESSSLKWIIIQGANSHHNRIDHNLFEEKHQLGNFITIDGSSTQQSQYDLIDYNHFRNIGPRATNEMEAIRVGWSAISKSDGFTTVENNLFENCDGDPEIVSVKSNANTVRYNTFRTSQGSVSLRHGNRSQVHGNFFFGGGKTGTGGVRVYGQDHKIYNNHFEGLTGTGYDAALQLDGGDVDTSGALSSHWRVYRATAVHNTFVNNVSNIEIGANYSLAPVDSLVADNIVVGSSGKLFNELKMPKNMTYAGNIGWPTGSATIGITTGVRTVNPLLAKQGEVYRLGTGSPAVNTASGSYSFLADDMDGQSRSGTADVGADELSTGTVVHKPLNSADVGISAP |  |  | optimum pH ([1]; 50° C., pH 3.0-10.0, 0.3% (w/v) sodium alginate): 9.0; optimum reaction temperature ([1]; pH 7.0, temperature range of 30-100° C., 0.3% (w/v) sodium alginate): 50 °C; enzyme activity retained ([2]; 4° C. for 4 days at pH 7.0-10.0): 80%; enzyme activity retained ([2]; 30° C. for 24 hours): 80%; substrate specificity [3]: poly M specific alginate lyase; degradation of polysaccharides ([4]; 0.3% (w/v) sodium alginate, poly M, poly G, 0.6 U, 30° C., pH 7.0, 12 hours, HPLC): could degrade all three kinds of polysaccharides; mode of digestion ([4]; HPLC product analysis): endo-type alginate lyase; polymerization degree of unsaturated oligosaccharide products ([4]; degradation of sodium alginate): 2-8; unsaturated disaccharides as share of the total unsaturated oligosaccharide products ([4]; degradation of sodium alginate): about 70% |
